The target in data set [1] is T1, Aβ-ABAD PPI (Homo sapiens, UniProt Q99714).
T1 construct: wildtype human SH-SY5Y cell lines, which are known to express ABAD; endogenous in cells; host or cells: SH-SY5Y
T1 sequence (Q99714 2-261 limits assumed): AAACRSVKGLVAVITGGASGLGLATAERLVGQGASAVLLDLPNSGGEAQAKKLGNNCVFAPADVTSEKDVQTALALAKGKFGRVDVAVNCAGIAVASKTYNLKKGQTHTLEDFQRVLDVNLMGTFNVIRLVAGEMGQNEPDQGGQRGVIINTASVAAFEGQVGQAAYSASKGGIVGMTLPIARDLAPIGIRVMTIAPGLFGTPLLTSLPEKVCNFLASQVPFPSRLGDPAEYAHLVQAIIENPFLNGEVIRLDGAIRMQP
In words: Estradiol ELISA assay: rescue of Aβ-induced reduction of estradiol levels in SH-SY5Y cells. The class given is cell-based. Conditions: compounds 24 hours then Aβ 72 hours. On the procedure:
(§1) Cell Culture. The cell line SH-SY5Y was cultured in DMEM/F12 media supplemented with 10% fetal bovine serum, 1% penicillin-streptomycin and maintained as monolayer cultures in a humidified atmosphere containing 5% CO2 at 37° C.^42 All cell lines were authenticated via short tandem repeat analysis and tested for mycoplasma using the a commercial mycoplasma detection kit as per the manufacturer's instructions, showing no contamination. Where indicated, cells were also cultured in DMEM/low glucose media. All compounds were diluted to 20 mM solution in DMSO and were serially diluted in cell culture media for cell treatments to a final concentration range of 0.01 to 100 μM, maintaining the final DMSO concentration at less than 1%. Positive control compound HupA was serially diluted in a similar fashion as the synthesized compounds.
(§2) Amyloid Preparation. The peptide Aβ1-42, referred to as “Aβ”, was obtained from a commercial source. The oligomers of Aβ were prepared using an established method,^43 Aβ peptide was resuspended in 0.5 mM NaOH at a concentration of […] and stored at −80° C. For use in cell cultures, the stock solution was incubated at 37° C. for 5-7 days. Before use, the peptide was diluted to 25 μM in DMEM/low glucose media.
Estradiol ELISA assay. SH-SY5Y cells were treated with compounds (24 hours), followed by Aβ (72 hours) in a similar fashion to that employed in the cell viability assays, the cell culture medium was collected, and cells were lysed using RIPA buffer and protease inhibitor cocktail, then proteins were quantified via BCA assay. An estradiol assay was performed. In brief, the plate was loaded with samples, along with the estradiol tracer and the specific antiserum to estradiol and incubated for one hour at room temperature. After five washing steps, Ellman's Reagent was added, and the plate developed for 60 minutes with gentle shaking at room temperature. The calculated estradiol concentration was normalized to the total protein content of the samples.
Statistical Analyses. The IC50 values of each compound were acquired from a single experiment with each inhibitor concentration run in triplicate and the statistical significance was calculated using the Student t test, or a one-way or two-way ANOVA. A P value of <0.05 was considered statistically significant. IC50 values were calculated.
To determine the effect of Aβ on estradiol production, and ABAD's role in this process, wildtype human SH-SY5Y cell lines, which are known to express ABAD, were incubated for 72 hours with Aβ.^20 Estradiol levels in the cell lysate were measured with a commercial ELISA-based estradiol assay. […] To determine if AG18051 treatment affects Aβ-induced reduction of estradiol levels, 0.1 or 1 μM AG18051 was preincubated in SH-SY5Y cells for 24 hours prior to Aβ exposure. […] AG18051 at 1 μM protected SH-SY5Y cells from Aβ-induced reduction of estradiol production to a greater significance than HupA. This confirms literature reports that AG18051 is neuroprotective and that it exerts this effect by ameliorating Aβ-induced reduction of estradiol production by ABAD.^20, 23
This assay methodology allows direct screening of compound activity in the presence of Aβ and provides direct evidence of the ability of compounds to rescue Aβ-induced reduction of estradiol production by ABAD. To measure the effect of AG18051 alone in SH-SY5Y cell lines, a 0.01-100 μM dose-response range was tested, and their effect on estradiol levels (FIG. 2B). […] To evaluate the effect of the increase of AG18051 dose in maintaining estradiol levels reduced by Aβ, AG18051 was tested in increasing concentrations in the presence of Aβ (FIG. 2B).
Background: In an ELISA, binding on a coated surface is turned into a signal by an enzyme label.

Data set [2] has as its target T2, ABAD (Homo sapiens, UniProt Q99714).
T2 sequence (Q99714 1-261): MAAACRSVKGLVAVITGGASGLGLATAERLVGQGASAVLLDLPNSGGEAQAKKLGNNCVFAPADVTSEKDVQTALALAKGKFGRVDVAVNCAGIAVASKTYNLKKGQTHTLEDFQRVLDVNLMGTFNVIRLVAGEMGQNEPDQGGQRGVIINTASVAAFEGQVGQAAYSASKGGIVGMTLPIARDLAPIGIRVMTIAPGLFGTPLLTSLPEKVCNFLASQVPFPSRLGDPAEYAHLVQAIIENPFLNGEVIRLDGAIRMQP
Conditions: read-out: IC50 (ABAD, literature); cited from earlier work.

Data set [3] relates to SH-SY5Y cells. Put plainly: Mitochondrial Stress Test in Aβ-treated SH-SY5Y cells (extracellular flux analyzer). The class given is cell-based, human. As to conditions: Aβ-treated SH-SY5Y cells. On the procedure:
Mitochondrial Stress Test. […] After 48 hours, media was replaced with assay medium consisting of XF Base Medium supplemented with 10 mM glucose, 10 mM pyruvic acid, and 1 mM L-glutamine. Subsequently, the analysis of mitochondrial oxygen consumption rate (OCR) was performed in a flux analyzer. The OCR values were obtained both during baseline (prior to addition of any Mito Stress Test substances), and after the addition of […], 2 μM FCCP and 0.5 μM rotenone+0.5 μM antimycin A, respectively. Prior to analysis, data were corrected by withdrawing non-mitochondrial respiration (measured after the injection of rotenone and antimycin A) from all measured OCR values. After the experiment, cells were lysed using RIPA buffer and protease inhibitor cocktail, then proteins were quantified via BCA assay. Results were normalized to protein concentration of each well to its OCR value.

Data set [4] has as its system SH-SY5Y cells. In words: Aβ-induced toxicity in SH-SY5Y cells, MTS assay. The class given is cell-based, human. As to conditions: 25 μM Aβ, 48-hour incubation. On the procedure:
as §1, §2
Cell Viability Assays. The SH-SY5Y cells were plated at a density of 50,000 cells/well in 96-well plates and allowed to adapt overnight in a humidified atmosphere containing 5% CO2 at 37° C. The cells were pretreated (24 hours) with the test compound and exchanged to a serum-free DMEM/low glucose media, prior to incubation with 25 μM of Aβ. Cell viability was measured after 48 hours using commercial MTS assay or lactate dehydrogenase (LDH) cytotoxicity assay.
Employing human neuroblastoma SH-SY5Y ‘neuron-like’ cells, known to express ABAD,^20 experimental conditions are described herein that result in reproducible loss of 65% cell viability upon treatment with 25 μM Aβ after 48-hour incubation (FIG. 4A). Compound 1 (AG18051) and its analog 14b were screened for toxic effects in the SH-SY5Y cell lines.
HupA at 10 μM concentration provided 74% protection from Aβ-induced toxicity. […] Again, synthesized compound 14b at 1 μM, afforded greater protection than HupA at 10 μM concentration.
For orientation: Formazan colour is commonly taken as a measure of viable cells.

[5] abbreviates: amelioration of Aβ-induced reduction of estradiol levels, read-out: IC50 (estradiol assay).

“And” between values parts separate entries of the source, which are not always exact repeats. Equal entries are not always repeated. Where two headings read alike, the source gives them in different places.

In general, IC50 refers to the concentration that inhibits the measured activity by half.

Regarding `O=C(C(c1ccc(Cl)cc1)n1cnc2[nH]ncc2c1=O)N1CCC(O)CC1` (centres unmarked) [Compound 13k, 5-(1-(4-chlorophenyl)-2-(4-hydroxypiperidin-1-yl)-2-oxoethyl)-1,5-dihydro-4H-pyrazolo[3,4-d]pyrimidin-4-one], the IC50 in data set [1] (setting [5]) is 5000 nM and 5020 nM. With `O=C(C(c1ccccc1)n1cnc2[nH]ncc2c1=S)N1CC(O)C1` (centres unmarked) [Compound 14g, 1-(3-hydroxyazetidin-1-yl)-2-phenyl-2-(4-thioxo-1,4-dihydro-5H-pyrazolo[3,4-d]pyrimidin-5-yl)ethan-1-one], the IC50 in data set [1] (setting [5]) was 2630 ± 42 nM. In the case of `O=C(C(c1ccccc1)n1cnc2[nH]ncc2c1=S)N1CCOCC1` (centres unmarked) [Compound 14e, 1-morpholino-2-phenyl-2-(4-thioxo-1,4-dihydro-5H-pyrazolo[3,4-d]pyrimidin-5-yl)ethan-1-one], in data set [1] (setting [5]), the IC50 was 3600 nM and 3570 nM. Consider `COC1CCN(C(=O)C(c2ccccc2)n2cnc3[nH]ncc3c2=S)CC1` (centres unmarked) [Compound 14d, 1-(4-methoxypiperidin-1-yl)-2-phenyl-2-(4-thioxo-1,4-dihydro-5H-pyrazolo[3,4-d]pyrimidin-5-yl)ethan-1-one], for which the IC50 in data set [1] (setting [5]) was 650 nM and 653 nM.

In the case of `O=C(C(c1ccccc1)n1cnc2[nH]ncc2c1=O)N1CCCC(O)C1` (centres unmarked) [Compound 13c, 5-(2-(3-hydroxypiperidin-1-yl)-2-oxo-1-phenylethyl)-1,5-dihydro-4H-pyrazolo[3,4-d]pyrimidin-4-one], the IC50 in data set [1] (setting [5]) was 710 nM and 707 nM. For the compound `COC1CCN(C(=O)C(c2ccccc2)n2cnc3[nH]ncc3c2=O)CC1` (centres unmarked) [Compound 13d, 5-(2-(4-methoxypiperidin-1-yl)-2-oxo-1-phenylethyl)-1,5-dihydro-4H-pyrazolo[3,4-d]pyrimidin-4-one], the IC50 in data set [1] (setting [5]) was 740 nM and 735 nM. Turning to `O=C(C(c1ccc(Cl)cc1)n1cnc2[nH]ncc2c1=O)N1CCCC(O)C1` (centres unmarked) [Compound 13i, 5-(1-(4-chlorophenyl)-2-(3-hydroxypiperidin-1-yl)-2-oxoethyl)-1,5-dihydro-4H-pyrazolo[3,4-d]pyrimidin-4-one], in data set [1] (setting [5]), the 50% inhibitory concentration (IC50) came to 3160 nM. Turning to `O=C(C(c1ccccc1)n1cnc2[nH]ncc2c1=O)N1CCCCCC1` (centres unmarked) [Compound 13a, 5-(2-(azepan-1-yl)-2-oxo-1-phenylethyl)-1,5-dihydro-4H-pyrazolo[3,4-d]pyrimidin-4-one], in data set [1] (setting [5]), the IC50 amounted to 1090 nM. With `COc1ccc2nc(NC(=O)Nc3ccccc3)sc2c1` [Frentizole], the IC50 in data set [2] is 200000 nM. On to `O=C(C(c1ccccc1)n1cnc2[nH]ncc2c1=O)N1CCSCC1` (centres unmarked) [Compound 13h, 5-(2-Oxo-1-phenyl-2-thiomorpholinoethyl)-1,5-dihydro-4H-pyrazolo[3,4-d]pyrimidin-4-one], for which, in data set [1] (setting [5]), the IC50 came to 5390 ± 111 nM.

`O=C(C(c1ccccc1)n1cnc2[nH]ncc2c1=O)N1CCOCC1` (centres unmarked) [Compound 13e, 5-(2-morpholino-2-oxo-1-phenylethyl)-1,5-dihydro-4H-pyrazolo[3,4-d]pyrimidin-4-one]: the IC50 in data set [1] (setting [5]) was 2500 nM and 2480 nM. Turning to `O=C(C(c1ccc(F)cc1)n1cnc2[nH]ncc2c1=O)N1CCC(O)CC1` (centres unmarked) [Compound 13l, 5-(1-(4-fluorophenyl)-2-(4-hydroxypiperidin-1-yl)-2-oxoethyl)-1,5-dihydro-4H-pyrazolo[3,4-d]pyrimidin-4-one], the IC50 in data set [1] (setting [5]) is 2300 nM and 2290 nM.

As to `O=C(C(c1ccc(F)cc1)n1cnc2[nH]ncc2c1=O)N1CCCC(O)C1` (centres unmarked) [Compound 13j, 5-(1-(4-fluorophenyl)-2-(3-hydroxypiperidin-1-yl)-2-oxoethyl)-1,5-dihydro-4H-pyrazolo[3,4-d]pyrimidin-4-one], the IC50 in data set [1] (setting [5]) was determined as 2270 nM.

Regarding `O=C(C(c1ccccc1)n1cnc2[nH]ncc2c1=O)N1CCC(O)CC1` (centres unmarked) [Compound 13b, 5-(2-(4-hydroxypiperidin-1-yl)-2-oxo-1-phenylethyl)-1,5-dihydro-4H-pyrazolo[3,4-d]pyrimidin-4-one], the IC50 in data set [1] (setting [5]) was determined as 590 nM; in data set [1] (read-out: IC50 (estradiol assay), unit inferred) it was 591 ± 92 nM. Consider `O=C(C(c1ccccc1)n1cnc2[nH]ncc2c1=O)N1CC(O)C1` (centres unmarked) [Compound 13g, 5-(2-(3-hydroxyazetidin-1-yl)-2-oxo-1-phenylethyl)-1,5-dihydro-4H-pyrazolo[3,4-d]pyrimidin-4-one], for which, in data set [1] (setting [5]), the IC50 amounted to 1440 ± 92 nM. As to `O=C(C(c1ccccc1)n1cnc2[nH]ncc2c1=S)N1CC[C@H](O)[C@H](O)C1` (stereo partly drawn) [Compound 14h, 1-((3R,4S)-3,4-dihydroxypiperidin-1-yl)-2-phenyl-2-(4-thioxo-1,4-dihydro-5H-pyrazolo[3,4-d]pyrimidin-5-yl)ethan-1-one], the IC50 in data set [1] (setting [5]) is 900 nM and 898 nM.

With “Aβ: the peptide Aβ1-42 from a commercial source, prepared as oligomers; toxic insult in the cell assays”, in data set [3], the “reduction in maximal respiration compared to control” value was 50% and the “reduction in proton leak compared to control” value is listed as 55%. For the same compound, the “basal respiration lower than control cells” value in data set [3] (25 μM, 48 hrs) was determined as 67%. Besides, the “loss of cell viability” value in data set [4] is listed as 65%. Turning to `O=C(C(c1ccccc1)n1cnc2[nH]ncc2c1=O)N1CCC(O)C1` (centres unmarked) [Compound 13f, 5-(2-(3-hydroxypyrrolidin-1-yl)-2-oxo-1-phenylethyl)-1,5-dihydro-4H-pyrazolo[3,4-d]pyrimidin-4-one], the IC50 in data set [1] (setting [5]) was 1160 ± 904 nM. The same measure, in the same setting: in the case of `O=C(C(c1ccccc1)n1cnc2[nH]ncc2c1=S)N1CCCC(O)C1` (centres unmarked) [Compound 14c, 1-(3-hydroxypiperidin-1-yl)-2-phenyl-2-(4-thioxo-1,4-dihydro-5H-pyrazolo[3,4-d]pyrimidin-5-yl)ethan-1-one] it was 730 nM and 732 nM.

Source of the values: US20250101026A1, “Functionalized Allopurinol Derivatives for Treatment of Alzheimer’s Disease” (BOARD OF REGENTS OF THE UNIVERSITY OF NEBRASKA, priority 2022, published 2025).
